Where a name gives a salt, the structure may show the parent alone.
biological target: T1, recombinant human TGR5 (Homo sapiens, UniProt Q8TDU6); experiment: cAMP assay (cAMP accumulation, HTRF) in CHOK1 cells stably expressing TGR5; type: cell-based; settings: CHOK1 cells stably expressing human TGR5, 30 minutes at RT, 1% DMSO
T1 construct: expressed in transfected cells
T1 sequence (Q8TDU6 1-330): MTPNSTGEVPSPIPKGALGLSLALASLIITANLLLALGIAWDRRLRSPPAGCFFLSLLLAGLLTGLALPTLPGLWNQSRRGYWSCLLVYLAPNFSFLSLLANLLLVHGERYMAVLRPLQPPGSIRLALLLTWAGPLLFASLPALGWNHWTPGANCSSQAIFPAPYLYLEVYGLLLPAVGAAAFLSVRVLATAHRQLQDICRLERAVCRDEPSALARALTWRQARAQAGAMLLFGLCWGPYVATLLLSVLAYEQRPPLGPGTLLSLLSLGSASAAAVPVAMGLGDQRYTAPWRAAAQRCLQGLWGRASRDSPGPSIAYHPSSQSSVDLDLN
Outline: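 Agonist-induced cAMP accumulation: stable TGR5-CHOK1 cells treated 30 min at RT with compound (1% DMSO) plus 0.1 mM IBMX. HTRF ratio converted to nM cAMP via standard curve; EC50 from four-parameter logistic fit, midpoint between baseline and maximum.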

Compound | EC50
Cc1c(Cl)cccc1OCCCC(=O)N1CCCOc2c(-c3cnn(Cc4c(F)cc(C(=O)N[C@@H](CCCCN)C(=O)O)cc4Cl)c3)cccc21 [Example 792, (S)-6-Amino-2-(3-chloro-4-((4-(5-(4-(3-chloro-2-methylphenoxy)butanoyl)-2,3,4,5-tetrahydrobenzo[b][1,4]oxazepin-9-yl)-1H-pyrazol-1-yl)methyl)-5-fluorobenzamido)hexanoic acid] | 185 nM
Cc1cccc(OCCCC(=O)N2C[C@@H]3C[C@@H]3c3c(-c4cnn(Cc5cccc(C(=O)NCS(=O)(=O)O)c5)c4)cccc32)c1C (single isomer, unassigned) [Example 238] | 59 nM
Cc1c(Cl)cccc1OCCCC(=O)N1CCSc2c(-c3cnn(Cc4cccc(C(=O)NCCC[C@H](N)C(=O)OC(C)C)c4)c3)cccc21 [Example 635, (S)-Isopropyl 2-amino-5-(3-((4-(4-(4-(3-chloro-2-methylphenoxy)butanoyl)-3,4-dihydro-2H-benzo[b][1,4]thiazin-8-yl)-1H-pyrazol-1-yl)methyl)benzamido)pentanoate, TFA salt] | 177 nM
Cc1cccc(OCCCC(=O)N2CCCc3c(-c4cnn(CCNC(=O)C5(C(=O)O)CC5)c4)cccc32)c1C [Example 110H, 1-(2-(4-(1-(4-(2,3-Dimethylphenoxy)butanoyl)-1,2,3,4-tetrahydroquinolin-5-yl)-1H-pyrazol-1-yl)ethylcarbamoyl) cyclopropanecarboxylic acid] | 6560 nM
Cc1cccc(OCCCC(=O)N2CCCc3c(-c4cn(Cc5cccc(C(=O)O)c5)nc4C)cccc32)c1C [Example 32G, 3-((4-(1-(4-(2,3-Dimethylphenoxy)butanoyl)-1,2,3,4-tetrahydroquinolin-5-yl)-3-methyl-1H-pyrazol-1-yl)methyl)benzoic acid] | 636 nM
Cc1cccc(OCCCC(=O)N2CC3CC3c3c(-c4cnn(Cc5c(F)cc(C(=O)NCCS(=O)(=O)O)cc5Cl)c4)cccc32)c1C (centres unmarked) [Example 69C, 2-(3-Chloro-4-((4-(3-(4-(2,3-dimethylphenoxy)butanoyl)-1a,2,3,7b-tetrahydro-1H-cyclopropa[c]quinolin-7-yl)-1H-pyrazol-1-yl)methyl)-5-fluorobenzamido)ethanesulfonic acid] | 58 nM
Cc1cccc(OCCCC(=O)N2CCCc3c(-c4nnn(Cc5cccc(C(=O)O)c5)n4)cccc32)c1C [Example 112, 3-((5-(1-(4-(2,3-Dimethylphenoxy)butanoyl)-1,2,3,4-tetrahydroquinolin-5-yl)-2H-tetrazol-2-yl)methyl)benzoic acid] | 145 nM
Cc1cccc(OCCCC(=O)N2CCCc3c(-c4cnn(Cc5cccc(C(=O)N(CC(=O)O)CC(=O)O)c5)c4)cccc32)c1C [Example 475, 2,2′-(3-((4-(1-(4-(2,3-Dimethylphenoxy)butanoyl)-1,2,3,4-tetrahydroquinolin-5-yl)-1H-pyrazol-1-yl)methyl)benzoylazanediyl)diacetic acid] | 2600 nM
Cc1cccc(OCCCC(=O)N2CCSc3c(-c4cnn(Cc5c(F)cc(C(=O)NCCC(=O)O)cc5Cl)c4)cccc32)c1C [Example 575, 3-(3-Chloro-4-((4-(4-(4-(2,3-dimethylphenoxy)butanoyl)-3,4-dihydro-2H-benzo[b][1,4]thiazin-8-yl)-1H-pyrazol-1-yl)methyl)-5-fluorobenzamido) propanoic acid] | 49 nM
Cc1c(Cl)cccc1OCCCC(=O)N1C[C@@H]2C[C@@H]2c2c(-c3cnn(Cc4cccc(N5C(=O)[C@H](CCC[N+](C)(C)C)N(C)C5=O)c4)c3)cccc21 [Example 352, 3-((S)-1-(3-((4-((1aR,7bS)-3-(4-(3-Chloro-2-methylphenoxy)butanoyl)-1a,2,3,7b-tetrahydro-1H-cyclopropa[c]quinolin-7-yl)-1H-pyrazol-1-yl)methyl)phenyl)-3-methyl-2,5-dioxoimidazolidin-4-yl)-N,N,N-trimethylpropan-1-aminium, TFA salt] | 196 nM
Cc1cccc(OCCCC(=O)N2CCCc3c(-c4cnn(CC5(CNC(=O)NCCS(=O)(=O)O)CC5)c4)cccc32)c1C [Example 69J, 2-(3-((1-((4-(1-(4-(2,3-Dimethylphenoxy)butanoyl)-1,2,3,4-tetrahydroquinolin-5-yl)-1H-pyrazol-1-yl)methyl)cyclopropyl)methyl)ureido)ethanesulfonic acid] | 5000 nM
Cc1cccc(OCCCC(=O)N(C)c2cccc(-c3cnn(Cc4cccc(C(=O)O)c4)c3)c2)c1C [Example 339, 3-((4-(3-(4-(2,3-Dimethylphenoxy)-N-methylbutanamido)phenyl)-1H-pyrazol-1-yl)methyl) benzoic acid] | 2580 nM
Cc1c(Cl)cccc1OCCCC(=O)N1CCCOc2c(-c3cnn(Cc4ccc(C(=O)N[C@@H](CC(=O)O)C(=O)O)cc4)c3)cccc21 [Example 767, (S)-2-(4-((4-(5-(4-(3-Chloro-2-methylphenoxy)butanoyl)-2,3,4,5-tetrahydrobenzo[b][1,4]oxazepin-9-yl)-1H-pyrazol-1-yl)methyl)benzamido)succinic acid] | 1520 nM

The remaining lines, values ahead:

EC50 | Compound
46 nM | Cc1c(Cl)cccc1OCCCC(=O)N1CCCOc2c(-c3cnn(Cc4c(F)cc(C(=O)NCCS(=O)(=O)O)cc4Cl)c3)cccc21 [Example 703, 2-(3-Chloro-4-((4-(5-(4-(3-chloro-2-methylphenoxy)butanoyl)-2,3,4,5-tetrahydrobenzo[b][1,4]oxazepin-9-yl)-1H-pyrazol-1-yl)methyl)-5-fluorobenzamido)ethanesulfonic acid]
36 nM | Cc1c(Cl)cccc1OCCOC(=O)N1C[C@@H]2C[C@@H]2c2c(-c3cnn(Cc4cc(C(=O)NCS(=O)(=O)O)ccc4Cl)c3)cccc21 [Example 662, (4-Chloro-3-((4-((1aR,7bS)-3-((2-(3-chloro-2-methylphenoxy)ethoxy)carbonyl)-1a,2,3,7b-tetrahydro-1H-cyclopropa[c]quinolin-7-yl)-1H-pyrazol-1-yl)methyl)benzamido) methanesulfonic acid]
49 nM | Cc1c(Cl)cccc1OCCOC(=O)N1C[C@@H]2C[C@@H]2c2c(-c3cnn(Cc4cc(C(=O)NC(CNS(C)(=O)=O)C(=O)O)ccc4Cl)c3)cccc21 (stereo partly drawn) [Example 685, 2-(4-Chloro-3-((4-((1aR,7bS)-3-((2-(3-chloro-2-methylphenoxy)ethoxy)carbonyl)-1a,2,3,7b-tetrahydro-1H-cyclopropa[c]quinolin-7-yl)-1H-pyrazol-1-yl)methyl)benzamido)-3-(methylsulfonamido)propanoic acid]
49 nM | Cc1c(Cl)cccc1OCCCC(=O)N1C[C@@H]2C[C@@H]2c2c(-c3cnn(Cc4cccc(C(=O)NCS(=O)(=O)O)c4)c3)cccc21 (single isomer, unassigned) [Example 242]
29 nM | Cc1cccc(OCCCC(=O)N2C[C@@H]3C[C@@H]3c3c(-c4cnn(Cc5cccc(NC(=O)NCC(=O)O)c5)c4)cccc32)c1C (single isomer, unassigned) [Example 250]
48 nM | Cc1cccc(OCCCC(=O)N2CCSc3c(-c4cnn(Cc5c(F)cc(C(=O)NCC(=O)O)cc5Cl)c4)cccc32)c1C [Example 576, 2-(3-Chloro-4-((4-(4-(4-(2,3-dimethylphenoxy)butanoyl)-3,4-dihydro-2H-benzo[b][1,4]thiazin-8-yl)-1H-pyrazol-1-yl)methyl)-5-fluorobenzamido) acetic acid]
48 nM | Cc1cccc(OCCCC(=O)N2CCCc3c(-c4cnn(Cc5c(F)cc(C(=O)NCC(=O)O)cc5Cl)c4)cccc32)c1C [Example 177, 2-(3-Chloro-4-((4-(1-(4-(2,3-dimethylphenoxy)butanoyl)-1,2,3,4-tetrahydroquinolin-5-yl)-1H-pyrazol-1-yl)methyl)-5-fluorobenzamido)acetic acid]

— patent publication US9062028B2, “Bicyclic nitrogen containing heteroaryl TGR5 receptor modulators” (Bristol-Myers Squibb Company, priority 2011, dated 2015)
